Data taken from the supplement of paper PMC13380429.

Legend:
A549-ACE2 [1] = experiment: drug-induced phospholipidosis relative to tamoxifen; higher = more phospholipidosis
[2] = test system: A549-ACE2 infected with SARS-CoV-2; experiment: morphology score (similarity to uninfected cells); higher = more like uninfected cells; details: 24 h
U2OS [3] = experiment: cell viability relative to DMSO; higher = less toxic; details: 72 h
Caco-2 [4] = experiment: as above; details: 72 h
HepG2 [5] = experiment: as above; details: 72 h
Calu-3 [6] = experiment: as above; details: 72 h
Vero E6 [7] = experiment: as above; details: 72 h
[8] = test system: A549-ACE2 infected with SARS-CoV-2; experiment: cell count relative to DMSO; higher = less toxic; details: 24 h
U2OS [9] = experiment: drug sensitivity score (DSS) for viability; higher = more toxic; extreme values may be limits of the assay; details: 72 h
Caco-2 [10] = experiment: as above; details: 72 h
HepG2 [11] = experiment: as above; details: 72 h
Calu-3 [12] = experiment: as above; details: 72 h
Vero E6 [13] = experiment: as above; details: 72 h
[14] = test system: A549-ACE2 infected with SARS-CoV-2; experiment: SARS-CoV-2 infection rate relative to DMSO; higher = more infection; details: 24 h
U2OS [15] = experiment: relative viability EC50 (midpoint between 100% and the lowest measured viability); higher = less toxic; details: 72 h
Caco-2 [16] = experiment: as above; details: 72 h
Calu-3 [17] = experiment: as above; details: 72 h
Vero E6 [18] = experiment: as above; details: 72 h
A549-ACE2 [19] = experiment: phospholipidosis EC50; higher = less potent phospholipidosis inducer
HepG2 [20] = experiment: relative viability EC50 (midpoint between 100% and the lowest measured viability); higher = less toxic; details: 72 h

NC(=O)c1noc([C@H](CCCC2CCCCC2)CC(=O)NO)n1
drug-induced phospholipidosis [%], A549-ACE2 [1]
Details	0.3 µM	0.833333 µM	3.33333 µM	6.66667 µM	10 µM	30 µM
24 h	4.23	6.27	14.7	16.7	18.4	23.6
48 h	4.52	5.1	16.8	23.1	24.9	32.6
72 h	5.18	1.64	8.76	19.5	21	–

Details	SARS-CoV-2 infection rate, [14] [%]	cell count, [8] [%]	cell viability, Caco-2 [4] [%]	cell viability, Calu-3 [6] [%]	cell viability, HepG2 [5] [%]	cell viability, U2OS [3] [%]	cell viability, Vero E6 [7] [%]	morphology score, [2]
1 nM	–	–	97.2	106	102	96.4	95.2	–
10 nM	–	–	93	102	108	101	90.9	–
100 nM	–	–	96.9	93.8	109	101	93.1	–
0.3 µM	102	102	–	–	–	–	–	-0.06
1000 nM	–	–	88	110	89.6	97.4	91.4	–
3 µM	98	100	–	–	–	–	–	0
10 µM	89	102	–	–	–	–	–	0.38
10000 nM	–	–	79.6	98.7	74.8	86.7	97	–
30 µM	95	101	–	–	–	–	–	0.25

Details	drug sensitivity score	relative viability EC50
Caco-2 [10]	1.2	–
Caco-2 [16]	–	> 10 µM
Calu-3 [12]	0	–
Calu-3 [17]	–	> 10000 nM
HepG2 [11]	2.2	–
U2OS [9]	0.3	–
U2OS [15]	–	> 10 µM
Vero E6 [13]	0	–
Vero E6 [18]	–	> 10 µM

CC(C)n1nc(C#Cc2ccccc2)c2c(N)ncnc21 [SPP86]
drug-induced phospholipidosis [%], A549-ACE2 [1]
Details	0.3 µM	0.833333 µM	3.33333 µM	6.66667 µM	10 µM	30 µM
24 h	3.29	3.69	12.6	41.4	63.6	142
48 h	3.96	2.69	12.1	21.7	35.6	–
72 h	6.41	0.816	8.31	18.5	28.1	–

Details	SARS-CoV-2 infection rate [%]	cell count [%]	cell viability [%]	morphology score	phospholipidosis EC50 [µM]
A549-ACE2 [19], 24 h	–	–	–	–	15.1
Caco-2 [4], 1 nM	–	–	98.1	–	–
Caco-2 [4], 10 nM	–	–	98.9	–	–
Caco-2 [4], 100 nM	–	–	88.9	–	–
Caco-2 [4], 1000 nM	–	–	67.7	–	–
Caco-2 [4], 10000 nM	–	–	56.5	–	–
Calu-3 [6], 1 nM	–	–	107	–	–
Calu-3 [6], 10 nM	–	–	104	–	–
Calu-3 [6], 100 nM	–	–	99.7	–	–
Calu-3 [6], 1000 nM	–	–	92.7	–	–
Calu-3 [6], 10000 nM	–	–	62.8	–	–
HepG2 [5], 1 nM	–	–	102	–	–
HepG2 [5], 10 nM	–	–	106	–	–
HepG2 [5], 100 nM	–	–	103	–	–
HepG2 [5], 1000 nM	–	–	60.9	–	–
HepG2 [5], 10000 nM	–	–	34.4	–	–
U2OS [3], 1 nM	–	–	106	–	–
U2OS [3], 10 nM	–	–	109	–	–
U2OS [3], 100 nM	–	–	107	–	–
U2OS [3], 1000 nM	–	–	107	–	–
U2OS [3], 10000 nM	–	–	75.7	–	–
Vero E6 [7], 1 nM	–	–	99.7	–	–
Vero E6 [7], 10 nM	–	–	99.7	–	–
Vero E6 [7], 100 nM	–	–	100	–	–
Vero E6 [7], 1000 nM	–	–	98.5	–	–
Vero E6 [7], 10000 nM	–	–	81.3	–	–
[2], 0.3 µM	–	–	–	0.34	–
[2], 3 µM	–	–	–	0.41	–
[2], 10 µM	–	–	–	0.54	–
[2], 30 µM	–	–	–	0.29	–
[8], 0.3 µM	–	103	–	–	–
[8], 3 µM	–	103	–	–	–
[8], 10 µM	–	106	–	–	–
[8], 30 µM	–	84	–	–	–
[14], 0.3 µM	90	–	–	–	–
[14], 3 µM	89	–	–	–	–
[14], 10 µM	53	–	–	–	–
[14], 30 µM	32	–	–	–	–

Details	drug sensitivity score	relative viability EC50
Caco-2 [10]	6.9	–
Calu-3 [12]	3	–
HepG2 [11]	8.3	–
HepG2 [20]	–	858 nM
U2OS [9]	0.6	–
U2OS [15]	–	> 10 µM
Vero E6 [13]	0.7	–
Vero E6 [18]	–	> 10 µM

COc1cc2ncnc(Nc3cccc(Cl)c3)c2cc1OC [tyrphostin-AG-1478]
drug-induced phospholipidosis [%], A549-ACE2 [1]
Details	0.3 µM	0.833333 µM	3.33333 µM	6.66667 µM	10 µM	30 µM
24 h	3.78	0.06	-0.97	3.23	3.9	3.18
48 h	3.39	-0.45	-0.89	-0.86	1.84	-2.59
72 h	0.893	-2.52	-3.56	-0.746	0.696	-0.954

Details	SARS-CoV-2 infection rate, [14] [%]	cell count, [8] [%]	cell viability, Caco-2 [4] [%]	cell viability, Calu-3 [6] [%]	cell viability, HepG2 [5] [%]	cell viability, U2OS [3] [%]	cell viability, Vero E6 [7] [%]	morphology score, [2]
1 nM	–	–	102	107	99.7	103	98.6	–
10 nM	–	–	88.6	103	85.3	96.1	100	–
100 nM	–	–	97.4	93.6	101	96.2	84.9	–
0.3 µM	101	97	–	–	–	–	–	-0.07
1000 nM	–	–	80.5	45.1	100	92.7	64.3	–
3 µM	91	102	–	–	–	–	–	0.32
10 µM	57	106	–	–	–	–	–	0.52
10000 nM	–	–	72.4	31.3	67.3	87.7	48.2	–
30 µM	19	69	–	–	–	–	–	0.35

Details	drug sensitivity score	relative viability EC50
Caco-2 [10]	3.1	–
Calu-3 [12]	11.1	–
Calu-3 [17]	–	422 nM
HepG2 [11]	1.5	–
U2OS [9]	0.1	–
U2OS [15]	–	> 10 µM
Vero E6 [13]	8.2	–
Vero E6 [18]	–	0.335 µM

NC1(c2ccc(-c3nc4ccn5c(=O)[nH]nc5c4cc3-c3ccccc3)cc2)CCC1 [MK-2206]
drug-induced phospholipidosis [%], A549-ACE2 [1]
Details	0.3 µM	0.833333 µM	3.33333 µM	6.66667 µM	10 µM	30 µM
24 h	3.85	16.3	76	128	149	82.1
48 h	2.41	16.9	89	158	169	–
72 h	0.889	14.8	66.8	–	–	–

Details	SARS-CoV-2 infection rate [%]	cell count [%]	cell viability [%]	morphology score	phospholipidosis EC50 [µM]
A549-ACE2 [19], 24 h	–	–	–	–	3.24
A549-ACE2 [19], 48 h	–	–	–	–	3.44
Caco-2 [4], 1 nM	–	–	102	–	–
Caco-2 [4], 10 nM	–	–	95.3	–	–
Caco-2 [4], 100 nM	–	–	87.1	–	–
Caco-2 [4], 1000 nM	–	–	75	–	–
Caco-2 [4], 10000 nM	–	–	66.2	–	–
Calu-3 [6], 1 nM	–	–	104	–	–
Calu-3 [6], 10 nM	–	–	100	–	–
Calu-3 [6], 100 nM	–	–	84.1	–	–
Calu-3 [6], 1000 nM	–	–	63	–	–
Calu-3 [6], 10000 nM	–	–	38	–	–
HepG2 [5], 1 nM	–	–	95.6	–	–
HepG2 [5], 10 nM	–	–	93.7	–	–
HepG2 [5], 100 nM	–	–	84.8	–	–
HepG2 [5], 1000 nM	–	–	66.1	–	–
HepG2 [5], 10000 nM	–	–	59	–	–
U2OS [3], 1 nM	–	–	104	–	–
U2OS [3], 10 nM	–	–	103	–	–
U2OS [3], 100 nM	–	–	96.9	–	–
U2OS [3], 1000 nM	–	–	89	–	–
U2OS [3], 10000 nM	–	–	67.8	–	–
Vero E6 [7], 1 nM	–	–	94	–	–
Vero E6 [7], 10 nM	–	–	94.7	–	–
Vero E6 [7], 100 nM	–	–	93.4	–	–
Vero E6 [7], 1000 nM	–	–	81	–	–
Vero E6 [7], 10000 nM	–	–	63.2	–	–
[2], 0.1 µM	–	–	–	0.19	–
[2], 0.3 µM	–	–	–	0.27	–
[2], 1 µM	–	–	–	0.31	–
[2], 3 µM	–	–	–	0.79	–
[8], 0.1 µM	–	100	–	–	–
[8], 0.3 µM	–	99	–	–	–
[8], 1 µM	–	85	–	–	–
[8], 3 µM	–	103	–	–	–
[14], 0.1 µM	105	–	–	–	–
[14], 0.3 µM	101	–	–	–	–
[14], 1 µM	97	–	–	–	–
[14], 3 µM	29	–	–	–	–

Details	drug sensitivity score	relative viability EC50 [nM]
Caco-2 [10]	5.4	–
Calu-3 [12]	8.7	–
Calu-3 [17]	–	490
HepG2 [11]	7.6	–
U2OS [9]	2.7	–
Vero E6 [13]	3.9	–
